From US4806642A, “Purine derivatives” (Warner-Lambert Company, priority 1987, dated 1989)

Columns and labels:
[1] = tested on: B-cell; assay: toxicity to B-cell in the presence of 2'-deoxyguanosine; assay type: cell-based; conditions: in the presence of the same amount (10 micromoles) of 2'-deoxyguanosine
From the text: (§1) The same compounds also were found by a standard test (Science, 214, 1137, 1981) to be selectively cytotoxic for T-cells in the presence of 2'-deoxyguanosine at a similar concentration range. For example, 2,8-diamino-9-[(2-hydroxyethoxy)methyl)]-9H-purine-6-ol is selectively cytotoxic to T-cell at a concentration of about 30 micromoles in the presence of 10 micromoles of 2'-deoxyguanosine. Similarly, 2-[(2,8-diamino-6-hydroxy-9H-purin-9-yl)methoxy]-1,3-propanediol is selectively cytotoxic to T-cell at a concentration of about 7 micromoles in the presence of 10 micromoles of 2'-deoxyguanosine. Both compounds were nontoxic to B-cell in the presence of the same amount of 2'-deoxyguanosine. Since T-cells play a central role in immune response, use of the compounds of the invention is contemplated for the immunoregulation of autoimmune diseases such as rheumatoid arthritis, systemic lupus erythematosus, inflammatory bowel disease, cancer, and viral diseases, transplantation, juvenile diabetes, myasthenia gravis, and multiple sclerosis. The present invention thus includes compositions containing a compound of formula 1 in treating disease such as autoimmune disease characterized by abnormal immune response in warmblooded animals. […]

[2] = tested on: T-cells; assay: selective cytotoxicity for T-cells in the presence of 2'-deoxyguanosine (standard test, Science, 214, 1137, 1981); assay type: cell-based; conditions: in the presence of 10 micromoles of 2'-deoxyguanosine
From the text: as §1

Row | SMILES | toxicity to B-cell [1] | concentration at which selectively cytotoxic to T-cell [2]
1 | Nc1nc2c(nc(N)n2COCCO)c(=O)[nH]1 [2,8-Diamino-9-[(2-hydroxyethoxy)methyl)]-9H-purin-6-ol] | nontoxic | about 30 micromoles
2 | Nc1nc(O)c2nc(N)n(COC(CO)CO)c2n1 [2-[(2,8-Diamino-6-hydroxy-9H-purin-9-yl)methoxy]-1,3-propanediol] | nontoxic | about 7 micromoles
